Experimental data as given in the CheMixHub viscosity set.
Values joined by “and” are separate entries in the source; they are usually repeats but may differ in a detail not shown here. Equal entries are not always repeated. ± gives the uncertainty stated by the source.

CCCC[n+]1ccn(C)c1.N#C[C-](C#N)C#N
100 kPa
Conditions | viscosity [mPa·s]
293.15 K | 34.9 ± 1.8
298.15 K | 27.97 ± 1.4
303.15 K | 22.85 ± 1.2
308.15 K | 18.98 ± 0.97
313.15 K | 15.99 ± 0.82
318.15 K | 13.66 ± 0.7
323.15 K | 11.8 ± 0.6

CC(C)c1cc(C(C)C)cc(C(C)C)c1
102 kPa
Conditions | viscosity [mPa·s]
293.15 K | 4.12 ± 0.07
303.15 K | 3.05 ± 0.06
313.15 K | 2.35 ± 0.05
323.15 K | 1.86 ± 0.04

C/C=C/C(=O)OCC
101 kPa
Conditions | viscosity [mPa·s]
293.15 K | 0.8184 ± 0.0091
298.15 K | 0.7576 ± 0.0085
303.15 K | 0.7053 ± 0.0079
313.15 K | 0.6154 ± 0.007
323.15 K | 0.5471 ± 0.0063

CNC=O
viscosity
Conditions | 298.15 K | 303 K | 303.15 K | 308.15 K | 313.15 K | 318.15 K | 323.15 K
101 kPa | 1.746 ± 0.028 mPa·s | 1.475 ± 0.014 mPa·s | 1.585 ± 0.074 mPa·s and 1.597 ± 0.015 mPa·s and 1.58 ± 0.025 mPa·s | 1.462 ± 0.069 mPa·s and 1.473 ± 0.014 mPa·s and 1.434 ± 0.023 mPa·s | 1.352 ± 0.065 mPa·s and 1.361 ± 0.013 mPa·s and 1.306 ± 0.021 mPa·s | 1.255 ± 0.06 mPa·s and 1.263 ± 0.012 mPa·s and 1.191 ± 0.02 mPa·s | 1.175 ± 0.011 mPa·s
101.3 kPa | 1.695 ± 0.024 mPa·s | – | – | – | – | – | –
101.33 kPa | – | – | 1.586 ± 0.015 mPa·s | 1.463 ± 0.013 mPa·s | 1.352 ± 0.013 mPa·s | 1.256 ± 0.012 mPa·s | 1.167 ± 0.011 mPa·s

CCCCCCCCN(CCCCCCCC)CCCCCCCC
Conditions | viscosity
298.15 K, 101.33 kPa | 8.325 ± 0.24 mPa·s and 8.325 ± 0.23 mPa·s
303.15 K, 101 kPa | 6.95 ± 0.14 mPa·s

CCCCCCCCCCCC[P+](CCCC)(CCCC)CCCC.N#Cc1ccc[n-]1
100 kPa
Conditions | viscosity [mPa·s]
293.15 K | 567 ± 84
298.15 K | 389 ± 57
303.15 K | 297 ± 43
313.15 K | 166 ± 24

C=CC(=O)OC(C)(C)C
viscosity [mPa·s]
Conditions | 293.15 K | 298.15 K | 303.15 K | 308.15 K | 313.15 K | 318.15 K
100 kPa | 0.9072 ± 0.012 | 0.8309 ± 0.011 | 0.76 ± 0.011 | 0.701 ± 0.011 | 0.6485 ± 0.011 | 0.6034 ± 0.011
101 kPa | 0.9072 ± 0.037 | 0.8309 ± 0.034 | 0.76 ± 0.031 | 0.701 ± 0.029 | 0.6485 ± 0.026 | 0.6034 ± 0.025

CCCCOCCO
Conditions | viscosity
293.15 K, 101.3 kPa | 3.248 ± 0.16 mPa·s
293.15 K, 101.33 kPa | 3.26 ± 0.069 mPa·s
295.15 K, 101 kPa | 3.015 ± 0.027 mPa·s
297.15 K, 101 kPa | 2.857 ± 0.026 mPa·s
298 K, 101.3 kPa | 2.786 ± 0.073 mPa·s
298.15 K, 100 kPa | 2.855 ± 0.1 mPa·s
298.15 K, 101.3 kPa | 2.834 ± 0.14 mPa·s
298.15 K, 101.33 kPa | 2.844 ± 0.06 mPa·s
298.45 K, 101 kPa | 2.825 ± 0.026 mPa·s
299.15 K, 101 kPa | 2.709 ± 0.024 mPa·s
301.15 K, 101 kPa | 2.576 ± 0.023 mPa·s
303 K, 101.3 kPa | 2.403 ± 0.064 mPa·s
303.15 K, 101.33 kPa | 2.408 ± 0.061 mPa·s
305.15 K, 101 kPa | 2.327 ± 0.021 mPa·s
307.15 K, 101 kPa | 2.217 ± 0.019 mPa·s
308 K, 101.3 kPa | 2.115 ± 0.056 mPa·s
308.15 K, 100 kPa | 2.274 ± 0.1 mPa·s
308.15 K, 101.3 kPa | 2.228 ± 0.014 mPa·s and 2.204 ± 0.11 mPa·s
308.15 K, 101.33 kPa | 2.193 ± 0.1 mPa·s
309.15 K, 101 kPa | 2.118 ± 0.019 mPa·s
311.15 K, 101 kPa | 2.017 ± 0.018 mPa·s
313 K, 101.3 kPa | 1.867 ± 0.05 mPa·s
313.15 K, 101.3 kPa | 1.964 ± 0.099 mPa·s
313.15 K, 101.33 kPa | 1.97 ± 0.052 mPa·s and 1.869 ± 0.048 mPa·s
315.15 K, 101 kPa | 1.844 ± 0.016 mPa·s
317.15 K, 101 kPa | 1.764 ± 0.015 mPa·s
318 K, 101.3 kPa | 1.657 ± 0.044 mPa·s
318.15 K, 101 kPa | 1.937 ± 0.19 mPa·s and 1.938 ± 0.045 mPa·s and 1.928 ± 0.078 mPa·s
318.15 K, 101.3 kPa | 1.759 ± 0.089 mPa·s
318.15 K, 101.33 kPa | 1.764 ± 0.052 mPa·s
319.15 K, 101 kPa | 1.688 ± 0.015 mPa·s
321.15 K, 101 kPa | 1.618 ± 0.014 mPa·s
323.15 K, 101 kPa | 1.552 ± 0.013 mPa·s
323.15 K, 101.3 kPa | 1.584 ± 0.08 mPa·s
323.15 K, 101.33 kPa | 1.588 ± 0.051 mPa·s

CC(C)OCCO
101.33 kPa
Conditions | viscosity [mPa·s]
298.15 K | 2.106 ± 0.026
308.15 K | 1.649 ± 0.021
318.15 K | 1.315 ± 0.017
